# PMC9090415, “Discovery of small molecule inhibitors of Plasmodium falciparum apicoplast DNA polymerase” (Journal of Enzyme Inhibition and Medicinal Chemistry, 2022)
# Target: P. falciparum apicoplast DNA polymerase (Pf-apPOL) (Plasmodium falciparum, UniProt Q8ILY1)
# Test: Fluorescence-based high-throughput DNA polymerase assay (molecular beacon), primary screen and dose-response
# Assay type: biochemical
# Conditions: for DNA Pol: 90 min, 10 µM; for IC50: supplemental file 2, sheet IC50 nontoxic compounds, Pf-apPOL
# Outline: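 Single-point screening used 10 µM compound with 20 nM polymerase, 20 nM hairpin substrate and 6 µM dNTPs for 90 min at 25 °C. Confirmatory titrations (2.5–80 µM) followed fluorescence at three times, and IC50 was derived from a fit including a cooperativity term n.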
# [1] = 'DNA Pol', screening value, unit not given
# [2] = conc 2.5 (unit not given), 40', DRC-2
# [3] = conc 5 (unit not given), 40', DRC-2
# [4] = primary screen hit value, DNA Pol (186 hits)
# Chain of P. falciparum apicoplast DNA polymerase (Pf-apPOL) (Q8ILY1 entry or part of it): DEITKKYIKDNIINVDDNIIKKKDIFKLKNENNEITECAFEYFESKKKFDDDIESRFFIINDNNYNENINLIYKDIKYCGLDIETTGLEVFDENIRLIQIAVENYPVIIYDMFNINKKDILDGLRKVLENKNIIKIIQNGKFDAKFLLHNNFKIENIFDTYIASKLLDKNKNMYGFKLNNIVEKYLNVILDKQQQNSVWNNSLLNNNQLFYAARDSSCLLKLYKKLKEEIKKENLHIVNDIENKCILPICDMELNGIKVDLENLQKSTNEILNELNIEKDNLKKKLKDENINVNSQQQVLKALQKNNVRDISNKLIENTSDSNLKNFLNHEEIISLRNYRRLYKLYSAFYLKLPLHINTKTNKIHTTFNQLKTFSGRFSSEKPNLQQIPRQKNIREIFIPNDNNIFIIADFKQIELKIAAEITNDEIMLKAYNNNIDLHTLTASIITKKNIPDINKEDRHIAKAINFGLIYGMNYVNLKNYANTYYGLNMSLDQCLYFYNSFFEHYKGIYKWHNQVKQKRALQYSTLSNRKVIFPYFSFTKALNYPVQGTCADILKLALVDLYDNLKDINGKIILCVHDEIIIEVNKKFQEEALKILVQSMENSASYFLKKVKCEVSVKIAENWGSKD
structure (smiles),measurement,setting,value
"O=C(O)CC1SC(c2ccc3c(c2)OCO3)=NC1=O (stereo not drawn) [Molecule 69, OC(=O)CC1SC(=NC1=O)c1ccc2c(c1)OCO2]",DNA Pol,[1],73
same,% inhibition Apo pol 10',"DRC-1, concentration 2.5",9.093%
same,% inhibition Apo pol 10',"DRC-1, concentration 5",10.6697%
same,% inhibition Apo pol 10',"DRC-1, concentration 10",24.5481%
same,% inhibition Apo pol 10',"DRC-1, concentration 20",37.0336%
same,% inhibition Apo pol 10',"DRC-1, concentration 40",59.8933%
same,% inhibition Apo pol 10',"DRC-1, concentration 80",73.2432%
same,% inhibition Apol 90',"DRC-1, 90', concentration 2.5",0.8612%
same,% inhibition Apol 90',"DRC-1, 90', concentration 5",2.259%
same,% inhibition Apol 90',"DRC-1, 90', concentration 10",10.3106%
same,% inhibition Apol 90',"DRC-1, 90', concentration 20",18.6533%
same,% inhibition Apol 90',"DRC-1, 90', concentration 40",43.3337%
same,% inhibition Apol 90',"DRC-1, 90', concentration 80",58.9692%
same,% inhibition apPOL 180',"DRC-1, 180', concentration 2.5",-4.62%
same,% inhibition apPOL 180',"DRC-1, 180', concentration 5",-4.006%
same,% inhibition apPOL 180',"DRC-1, 180', concentration 10",2.363%
same,% inhibition apPOL 180',"DRC-1, 180', concentration 20",9.6301%
same,% inhibition apPOL 180',"DRC-1, 180', concentration 40",35.5256%
same,% inhibition apPOL 180',"DRC-1, 180', concentration 80",52.4762%
same,% inhibition Apo pol 5',"DRC-2, 5', concentration 2.5",14%
same,% inhibition Apo pol 5',"DRC-2, 5', concentration 5",9%
same,% inhibition Apo pol 5',"DRC-2, 5', concentration 10",20%
same,% inhibition Apo pol 5',"DRC-2, 5', concentration 20",29%
same,% inhibition Apo pol 5',"DRC-2, 5', concentration 40",41%
same,% inhibition Apo pol 5',"DRC-2, 5', concentration 80",49%
same,% inhibition Apol 40',"DRC-2, 40', concentration 2.5",9%
same,% inhibition Apol 40',"DRC-2, 40', concentration 5",7%
same,% inhibition Apol 40',"DRC-2, 40', concentration 10",16%
same,% inhibition Apol 40',"DRC-2, 40', concentration 20",23%
same,% inhibition Apol 40',"DRC-2, 40', concentration 40",37%
same,% inhibition Apol 40',"DRC-2, 40', concentration 80",51%
same,% inhibition ApPOL 90',"DRC-2, 90', concentration 2.5",5.65%
same,% inhibition ApPOL 90',"DRC-2, 90', concentration 5",4%
same,% inhibition ApPOL 90',"DRC-2, 90', concentration 10",10%
same,% inhibition ApPOL 90',"DRC-2, 90', concentration 20",16%
same,% inhibition ApPOL 90',"DRC-2, 90', concentration 40",33%
same,% inhibition ApPOL 90',"DRC-2, 90', concentration 80",50%
same,% inhibition apPOL 180',"DRC-2, 180', concentration 2.5",-0.895%
same,% inhibition apPOL 180',"DRC-2, 180', concentration 5",-1.56%
same,% inhibition apPOL 180',"DRC-2, 180', concentration 10",3%
same,% inhibition apPOL 180',"DRC-2, 180', concentration 20",7%
same,% inhibition apPOL 180',"DRC-2, 180', concentration 40",23%
same,% inhibition apPOL 180',"DRC-2, 180', concentration 80",43%
same,% inhibition Apol 40',[2],9%
same,% inhibition Apo pol 5',"conc 5 (unit not given), 5', DRC-2",9%
same,% inhibition Apol 40',[3],7%
same,% inhibition Apol 40',"conc 10 (unit not given), 40', DRC-2",16%
same,% inhibition Apol 40',"conc 20 (unit not given), 40', DRC-2",23%
same,% inhibition ApPOL 90',"conc 20 (unit not given), 90', DRC-2",16%
same,% inhibition apPOL 180',"conc 20 (unit not given), 180', DRC-2",7%
same,% inhibition apPOL 180',"conc 40 (unit not given), 180', DRC-2",23%
same,DNA Pol,[4],73
O=C(O)CC1SC(c2ccc3c(c2)OCO3)=NC1=O (stereo not drawn) [Molecule 69],IC50,,29.2 µM
Cc1ccsc1Cn1c(C)ccc1C [Molecule 70],IC50,,31.6 µM
"CSC(C)C(=O)C=CN(C)C (stereo not drawn) [Molecule 71, CSC(C(=O)C=CN(C)C)C]",DNA Pol,[1],74
same,% inhibition Apo pol 10',"DRC-1, concentration 2.5",3.1346%
same,% inhibition Apo pol 10',"DRC-1, concentration 5",9.272%
same,% inhibition Apo pol 10',"DRC-1, concentration 10",23.0547%
same,% inhibition Apo pol 10',"DRC-1, concentration 20",40.6618%
same,% inhibition Apo pol 10',"DRC-1, concentration 40",61.0031%
same,% inhibition Apo pol 10',"DRC-1, concentration 80",73.8561%
same,% inhibition Apol 90',"DRC-1, 90', concentration 2.5",-5.565%
same,% inhibition Apol 90',"DRC-1, 90', concentration 5",-2.761%
same,% inhibition Apol 90',"DRC-1, 90', concentration 10",6.496%
same,% inhibition Apol 90',"DRC-1, 90', concentration 20",18.7859%
same,% inhibition Apol 90',"DRC-1, 90', concentration 40",40.8686%
same,% inhibition Apol 90',"DRC-1, 90', concentration 80",61.3008%
same,% inhibition apPOL 180',"DRC-1, 180', concentration 2.5",-9.552%
same,% inhibition apPOL 180',"DRC-1, 180', concentration 5",-9.951%
same,% inhibition apPOL 180',"DRC-1, 180', concentration 10",-3.723%
same,% inhibition apPOL 180',"DRC-1, 180', concentration 20",5.025%
same,% inhibition apPOL 180',"DRC-1, 180', concentration 40",23.5627%
same,% inhibition apPOL 180',"DRC-1, 180', concentration 80",48.8803%
same,% inhibition Apo pol 5',"DRC-2, 5', concentration 2.5",11%
same,% inhibition Apo pol 5',"DRC-2, 5', concentration 5",14%
same,% inhibition Apo pol 5',"DRC-2, 5', concentration 10",26%
same,% inhibition Apo pol 5',"DRC-2, 5', concentration 20",41%
same,% inhibition Apo pol 5',"DRC-2, 5', concentration 40",46%
same,% inhibition Apo pol 5',"DRC-2, 5', concentration 80",48%
same,% inhibition Apol 40',"DRC-2, 40', concentration 2.5",11%
same,% inhibition Apol 40',"DRC-2, 40', concentration 5",11%
same,% inhibition Apol 40',"DRC-2, 40', concentration 10",21%
same,% inhibition Apol 40',"DRC-2, 40', concentration 20",42%
same,% inhibition Apol 40',"DRC-2, 40', concentration 40",50%
same,% inhibition Apol 40',"DRC-2, 40', concentration 80",62%
same,% inhibition ApPOL 90',"DRC-2, 90', concentration 2.5",9%
same,% inhibition ApPOL 90',"DRC-2, 90', concentration 5",6%
same,% inhibition ApPOL 90',"DRC-2, 90', concentration 10",15%
same,% inhibition ApPOL 90',"DRC-2, 90', concentration 20",39%
same,% inhibition ApPOL 90',"DRC-2, 90', concentration 40",47%
same,% inhibition ApPOL 90',"DRC-2, 90', concentration 80",64%
same,% inhibition apPOL 180',"DRC-2, 180', concentration 2.5",4%
same,% inhibition apPOL 180',"DRC-2, 180', concentration 5",0.715%
same,% inhibition apPOL 180',"DRC-2, 180', concentration 10",5.41%
same,% inhibition apPOL 180',"DRC-2, 180', concentration 20",31%
same,% inhibition apPOL 180',"DRC-2, 180', concentration 40",37%
same,% inhibition apPOL 180',"DRC-2, 180', concentration 80",65%
same,% inhibition Apo pol 5',"conc 2.5 (unit not given), 5', DRC-2",11%
same,% inhibition Apol 40',[2],11%
same,% inhibition Apol 40',[3],11%
same,DNA Pol,[4],74
CSC(C)C(=O)C=CN(C)C (stereo not drawn) [Molecule 71],IC50,,26.9 µM
